How the values were obtained:
EIF2AK3 = target: T1, EIF2AK3 (Homo sapiens, UniProt Q9NZJ5); test: ProQinase 33PanQinase selectivity profiling; type: biochemical; details: 100 nM, relative to control, read-out: Residual activity (%)
T1 construct: purchased ProQinase GmbH

Aurora-A = Aurora-A (Homo sapiens, UniProt O14965); test: ProQinase 33PanQinase selectivity profiling; type: biochemical; details: 100 nM, relative to control, read-out: Residual activity (%)
CDK1/CycA2 = CDK1/CycA2 (Homo sapiens, UniProt P06493); test: ProQinase 33PanQinase selectivity profiling; type: biochemical; details: 100 nM, relative to control, read-out: Residual activity (%)
BMX = target: T2, BMX (Homo sapiens, UniProt P51813); test: ProQinase 33PanQinase selectivity profiling; type: biochemical; details: 100 nM, relative to control, read-out: Residual activity (%)
T2 construct: purchased ProQinase GmbH

DYRK4 = DYRK4 (Homo sapiens, UniProt Q9NR20); test: biochemical; details: read-out: Residual activity (%)
CAMK1D = CAMK1D (Homo sapiens, UniProt Q8IU85); test: ProQinase 33PanQinase selectivity profiling; type: biochemical; details: 100 nM, relative to control, read-out: Residual activity (%)
CK1-gamma2 = CK1-gamma2 (Homo sapiens, UniProt P78368); test: ProQinase 33PanQinase selectivity profiling; type: biochemical; details: 100 nM, relative to control
COT = target: T3, COT (Homo sapiens, UniProt P41279); test: ProQinase 33PanQinase selectivity profiling; type: biochemical; details: 100 nM, relative to control, read-out: Residual activity (%)
T3 construct: purchased ProQinase GmbH

CAMK4 = CAMK4 (Homo sapiens, UniProt Q16566); test: ProQinase 33PanQinase selectivity profiling; type: biochemical; details: 100 nM, relative to control, read-out: Residual activity (%)
CDK2/CycE1 = CDK2/CycE1 (Homo sapiens, UniProt P24941); test: ProQinase 33PanQinase selectivity profiling; type: biochemical; details: 100 nM, relative to control, read-out: Residual activity (%)
CDC7/ASK = target: T4, CDC7/ASK (Homo sapiens, UniProt O00311); test: ProQinase 33PanQinase selectivity profiling; type: biochemical; details: 100 nM, relative to control, read-out: Residual activity (%)
T4 construct: purchased ProQinase GmbH

ACK1 = target: T5, ACK1 (Homo sapiens, UniProt Q07912); test: ProQinase 33PanQinase selectivity profiling; type: biochemical; details: 100 nM, relative to control, read-out: Residual activity (%)
T5 construct: purchased ProQinase GmbH (Freiburg, Germany)

DAPK1 = DAPK1 (Homo sapiens, UniProt P53355); test: ProQinase 33PanQinase selectivity profiling; type: biochemical; details: 100 nM, relative to control, read-out: Residual activity (%)
JNK3 = JNK3 (Homo sapiens, UniProt P53779); test: ProQinase 33PanQinase selectivity profiling; type: biochemical; details: 100 nM, relative to control, read-out: residual activity
ABL1 = ABL1 (Homo sapiens, UniProt P00519); test: ProQinase 33PanQinase selectivity profiling; type: biochemical; details: 100 nM, relative to control, read-out: Residual activity (%)
CDK5/p25NCK = CDK5/p25NCK (Homo sapiens, UniProt Q00535); test: ProQinase 33PanQinase selectivity profiling; type: biochemical; details: 100 nM, relative to control, read-out: Residual activity (%)
CAMKK1 = CAMKK1 (Homo sapiens, UniProt Q8N5S9); test: ProQinase 33PanQinase selectivity profiling; type: biochemical; details: 100 nM, relative to control, read-out: Residual activity (%)
EPHA4 = target: T6, EPHA4 (Homo sapiens, UniProt P54764); test: ProQinase 33PanQinase selectivity profiling; type: biochemical; details: 100 nM, relative to control, read-out: Residual activity (%)
T6 construct: purchased ProQinase GmbH

CDK6/CycD1 = CDK6/CycD1 (Homo sapiens, UniProt Q00534); test: ProQinase 33PanQinase selectivity profiling; type: biochemical; details: 100 nM, relative to control, read-out: Residual activity (%)
CDK5/p35NCK = CDK5/p35NCK (Homo sapiens, UniProt Q00535); test: ProQinase 33PanQinase selectivity profiling; type: biochemical; details: 100 nM, relative to control, read-out: Residual activity (%)
DYRK1A = DYRK1A (Homo sapiens, UniProt Q13627); test: ProQinase 33PanQinase selectivity profiling; type: biochemical; details: 100 nM, relative to control, read-out: Residual activity (%)
CDK3/CycC = CDK3/CycC (Homo sapiens, UniProt Q00526); test: ProQinase 33PanQinase selectivity profiling; type: biochemical; details: 100 nM, relative to control, read-out: Residual activity (%)
CLK3 = target: T7, CLK3 (Homo sapiens, UniProt P49761); test: ProQinase 33PanQinase selectivity profiling; type: biochemical; details: 100 nM, relative to control, read-out: Residual activity (%)
T7 construct: purchased ProQinase GmbH

CDK8/CycC = CDK8/CycC (Homo sapiens, UniProt P49336); test: ProQinase 33PanQinase selectivity profiling; type: biochemical; details: 100 nM, relative to control, read-out: Residual activity (%)
CDK3/CycE1 = CDK3/CycE1 (Homo sapiens, UniProt Q00526); test: ProQinase 33PanQinase selectivity profiling; type: biochemical; details: 100 nM, relative to control, read-out: Residual activity (%)
CK1-gamma3 = CK1-gamma3 (Homo sapiens, UniProt Q9Y6M4); test: ProQinase 33PanQinase selectivity profiling; type: biochemical; details: 100 nM, relative to control
CK2-alpha2 = CK2-alpha2 (Homo sapiens, UniProt P19784); test: ProQinase 33PanQinase selectivity profiling; type: biochemical; details: 100 nM, relative to control, read-out: Residual activity (%)
DDR2 = DDR2 (Homo sapiens, UniProt Q16832); test: ProQinase 33PanQinase selectivity profiling; type: biochemical; details: 100 nM, relative to control, read-out: Residual activity (%)
CDK9/CycK = CDK9/CycK (Homo sapiens, UniProt P50750); test: ProQinase 33PanQinase selectivity profiling; type: biochemical; details: 100 nM, relative to control, read-out: Residual activity (%)
CDK19/CycC = CDK19/CycC (Homo sapiens, UniProt Q9BWU1); test: ProQinase 33PanQinase selectivity profiling; type: biochemical; details: 100 nM, relative to control, read-out: Residual activity (%)
[1] = tested on: panel of 321 protein kinases; test: Selectivity profiling in a panel of 321 protein kinases (ProQinase); type: biochemical; details: 100 nM
CDK9/CycT1 = CDK9/CycT1 (Homo sapiens, UniProt P50750); test: ProQinase 33PanQinase selectivity profiling; type: biochemical; details: 100 nM, relative to control, read-out: Residual activity (%)
CDK6/CycD3 = CDK6/CycD3 (Homo sapiens, UniProt Q00534); test: ProQinase 33PanQinase selectivity profiling; type: biochemical; details: 100 nM, relative to control, read-out: Residual activity (%)
B-RAF V600E = B-RAF V600E (Homo sapiens, UniProt P15056, V600E); test: ProQinase 33PanQinase selectivity profiling; type: biochemical; details: 100 nM, relative to control, read-out: Residual activity (%)
AKT1 aa106-480 = target: T8, AKT1 aa106-480 (Homo sapiens, UniProt P31749); test: ProQinase 33PanQinase selectivity profiling; type: biochemical; details: 100 nM, relative to control, read-out: Residual activity (%)
T8 construct: AKT1 aa106-480; purchased ProQinase GmbH (Freiburg, Germany)

AXL = target: T9, AXL (Homo sapiens, UniProt P30530); test: ProQinase 33PanQinase selectivity profiling; type: biochemical; details: 100 nM, relative to control, read-out: Residual activity (%)
T9 construct: purchased ProQinase GmbH (Freiburg, Germany)

RIPK2 = RIPK2 (Homo sapiens, UniProt O43353); test: ProQinase 33PanQinase selectivity profiling; type: biochemical; details: 100 nM, relative to control, read-out: residual activity
CDK1/CycE1 = CDK1/CycE1 (Homo sapiens, UniProt P06493); test: ProQinase 33PanQinase selectivity profiling; type: biochemical; details: 100 nM, relative to control, read-out: Residual activity (%)
p38α MAPK = p38α MAPK (Homo sapiens, UniProt Q16539); test: ProQinase 33PanQinase selectivity profiling; type: biochemical; details: 100 nM, relative to control, read-out: residual activity
ACV-R1B = target: T10, ACV-R1B (Homo sapiens, UniProt P36896); test: ProQinase 33PanQinase selectivity profiling; type: biochemical; details: 100 nM, relative to control, read-out: Residual activity (%)
T10 construct: purchased ProQinase GmbH (Freiburg, Germany)

CK1-epsilon = CK1-epsilon (Homo sapiens, UniProt P49674); test: ProQinase 33PanQinase selectivity profiling; type: biochemical; details: 100 nM, relative to control, read-out: Residual activity (%)
[2] = read-out: Residual activity (%)

CK1-gamma3, sequence (Q9Y6M4 whole entry): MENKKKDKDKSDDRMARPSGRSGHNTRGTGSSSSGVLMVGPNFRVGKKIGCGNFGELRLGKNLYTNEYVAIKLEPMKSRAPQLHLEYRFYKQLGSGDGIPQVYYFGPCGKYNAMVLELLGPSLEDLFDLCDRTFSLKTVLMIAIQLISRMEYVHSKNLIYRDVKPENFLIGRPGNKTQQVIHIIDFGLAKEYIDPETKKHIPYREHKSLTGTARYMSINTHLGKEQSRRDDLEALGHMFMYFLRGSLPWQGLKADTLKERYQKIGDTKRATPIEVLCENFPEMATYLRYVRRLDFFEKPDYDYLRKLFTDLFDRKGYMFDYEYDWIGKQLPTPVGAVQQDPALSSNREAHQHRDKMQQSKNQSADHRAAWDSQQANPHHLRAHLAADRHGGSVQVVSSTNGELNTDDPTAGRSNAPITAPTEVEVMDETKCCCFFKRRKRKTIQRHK
CK1-gamma2, sequence (P78368 whole entry): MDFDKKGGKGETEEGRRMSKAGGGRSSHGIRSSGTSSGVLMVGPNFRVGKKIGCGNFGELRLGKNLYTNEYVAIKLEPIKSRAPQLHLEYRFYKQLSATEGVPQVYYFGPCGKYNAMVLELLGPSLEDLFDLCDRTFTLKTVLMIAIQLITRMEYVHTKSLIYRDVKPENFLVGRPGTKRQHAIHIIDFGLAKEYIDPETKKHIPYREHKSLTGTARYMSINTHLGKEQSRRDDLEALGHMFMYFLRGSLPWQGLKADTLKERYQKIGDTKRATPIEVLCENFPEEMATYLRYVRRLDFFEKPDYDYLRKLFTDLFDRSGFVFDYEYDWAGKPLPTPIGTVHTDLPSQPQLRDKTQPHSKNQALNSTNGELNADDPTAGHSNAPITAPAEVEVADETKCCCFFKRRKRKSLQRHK
ABL1, sequence (P00519 whole entry): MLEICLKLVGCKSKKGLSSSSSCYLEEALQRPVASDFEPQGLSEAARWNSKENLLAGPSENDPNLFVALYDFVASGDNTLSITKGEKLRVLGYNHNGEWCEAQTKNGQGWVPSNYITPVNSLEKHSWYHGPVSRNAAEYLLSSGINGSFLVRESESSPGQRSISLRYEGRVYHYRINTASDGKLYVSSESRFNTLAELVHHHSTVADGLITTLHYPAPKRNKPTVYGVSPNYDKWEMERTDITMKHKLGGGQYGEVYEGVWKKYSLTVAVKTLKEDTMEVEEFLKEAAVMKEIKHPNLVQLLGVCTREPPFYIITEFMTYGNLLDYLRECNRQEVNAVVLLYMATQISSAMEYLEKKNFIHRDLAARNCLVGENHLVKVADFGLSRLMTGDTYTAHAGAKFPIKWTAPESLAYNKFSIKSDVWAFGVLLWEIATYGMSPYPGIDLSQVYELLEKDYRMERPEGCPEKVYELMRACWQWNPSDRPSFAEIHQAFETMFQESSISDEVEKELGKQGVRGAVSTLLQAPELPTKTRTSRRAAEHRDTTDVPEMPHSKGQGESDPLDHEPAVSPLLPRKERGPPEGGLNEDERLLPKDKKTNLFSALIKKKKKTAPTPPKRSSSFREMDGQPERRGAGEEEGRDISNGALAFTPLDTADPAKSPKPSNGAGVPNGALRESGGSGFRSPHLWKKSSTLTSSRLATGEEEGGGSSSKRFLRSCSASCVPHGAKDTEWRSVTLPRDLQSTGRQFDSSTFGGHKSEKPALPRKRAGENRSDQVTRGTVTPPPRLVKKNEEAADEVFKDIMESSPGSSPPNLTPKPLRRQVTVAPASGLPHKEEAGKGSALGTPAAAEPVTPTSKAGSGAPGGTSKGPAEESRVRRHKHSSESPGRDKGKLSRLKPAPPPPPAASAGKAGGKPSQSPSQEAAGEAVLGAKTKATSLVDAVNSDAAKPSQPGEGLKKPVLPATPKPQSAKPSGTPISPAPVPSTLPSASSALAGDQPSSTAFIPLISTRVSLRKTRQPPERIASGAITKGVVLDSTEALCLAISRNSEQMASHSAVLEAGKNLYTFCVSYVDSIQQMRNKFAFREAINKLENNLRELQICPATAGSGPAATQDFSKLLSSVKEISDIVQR
T9 sequence (P30530 26-894): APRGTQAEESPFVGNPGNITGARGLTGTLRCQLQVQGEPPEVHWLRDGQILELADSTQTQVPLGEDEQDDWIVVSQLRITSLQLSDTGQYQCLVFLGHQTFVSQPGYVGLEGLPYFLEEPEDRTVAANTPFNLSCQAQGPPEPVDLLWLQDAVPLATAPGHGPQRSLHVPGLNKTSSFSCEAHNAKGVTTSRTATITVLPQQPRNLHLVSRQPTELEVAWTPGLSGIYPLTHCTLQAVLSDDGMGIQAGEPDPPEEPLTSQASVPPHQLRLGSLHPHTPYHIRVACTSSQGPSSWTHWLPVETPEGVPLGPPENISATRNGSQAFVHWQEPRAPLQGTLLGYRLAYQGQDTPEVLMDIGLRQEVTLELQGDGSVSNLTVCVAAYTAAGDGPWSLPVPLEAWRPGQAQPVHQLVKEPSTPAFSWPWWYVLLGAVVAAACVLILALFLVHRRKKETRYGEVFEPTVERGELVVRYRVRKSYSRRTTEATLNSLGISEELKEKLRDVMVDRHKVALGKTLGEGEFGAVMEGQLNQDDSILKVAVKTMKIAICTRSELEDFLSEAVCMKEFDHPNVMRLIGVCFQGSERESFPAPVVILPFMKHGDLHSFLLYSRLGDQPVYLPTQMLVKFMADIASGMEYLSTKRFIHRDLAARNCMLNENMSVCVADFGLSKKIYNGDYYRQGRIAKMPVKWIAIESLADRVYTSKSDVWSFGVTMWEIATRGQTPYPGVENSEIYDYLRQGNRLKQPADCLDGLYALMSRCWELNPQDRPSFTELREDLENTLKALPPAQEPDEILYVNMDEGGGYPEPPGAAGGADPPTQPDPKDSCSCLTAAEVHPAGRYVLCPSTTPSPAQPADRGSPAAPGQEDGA
CDK1/CycA2, sequence (P06493 whole entry): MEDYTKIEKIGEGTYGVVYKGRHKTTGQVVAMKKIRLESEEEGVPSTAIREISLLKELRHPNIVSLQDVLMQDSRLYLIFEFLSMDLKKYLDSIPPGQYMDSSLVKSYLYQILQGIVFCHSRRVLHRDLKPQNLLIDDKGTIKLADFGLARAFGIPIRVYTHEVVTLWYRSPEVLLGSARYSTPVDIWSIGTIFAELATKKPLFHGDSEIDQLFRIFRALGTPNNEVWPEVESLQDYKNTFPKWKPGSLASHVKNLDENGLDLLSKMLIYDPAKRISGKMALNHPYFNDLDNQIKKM
CDK1/CycA2, sequence (P20248 whole entry partner): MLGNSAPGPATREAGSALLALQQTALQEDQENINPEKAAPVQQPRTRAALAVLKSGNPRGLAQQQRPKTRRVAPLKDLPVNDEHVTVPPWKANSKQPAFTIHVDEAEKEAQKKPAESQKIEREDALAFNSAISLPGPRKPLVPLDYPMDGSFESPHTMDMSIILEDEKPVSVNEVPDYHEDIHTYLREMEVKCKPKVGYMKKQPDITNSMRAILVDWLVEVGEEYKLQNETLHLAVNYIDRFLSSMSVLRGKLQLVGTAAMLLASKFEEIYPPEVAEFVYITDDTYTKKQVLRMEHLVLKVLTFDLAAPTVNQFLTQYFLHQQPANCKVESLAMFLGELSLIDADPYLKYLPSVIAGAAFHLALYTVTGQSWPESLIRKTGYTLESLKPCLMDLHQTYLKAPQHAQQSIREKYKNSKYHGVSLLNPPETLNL
CDK8/CycC, sequence (P49336 whole entry): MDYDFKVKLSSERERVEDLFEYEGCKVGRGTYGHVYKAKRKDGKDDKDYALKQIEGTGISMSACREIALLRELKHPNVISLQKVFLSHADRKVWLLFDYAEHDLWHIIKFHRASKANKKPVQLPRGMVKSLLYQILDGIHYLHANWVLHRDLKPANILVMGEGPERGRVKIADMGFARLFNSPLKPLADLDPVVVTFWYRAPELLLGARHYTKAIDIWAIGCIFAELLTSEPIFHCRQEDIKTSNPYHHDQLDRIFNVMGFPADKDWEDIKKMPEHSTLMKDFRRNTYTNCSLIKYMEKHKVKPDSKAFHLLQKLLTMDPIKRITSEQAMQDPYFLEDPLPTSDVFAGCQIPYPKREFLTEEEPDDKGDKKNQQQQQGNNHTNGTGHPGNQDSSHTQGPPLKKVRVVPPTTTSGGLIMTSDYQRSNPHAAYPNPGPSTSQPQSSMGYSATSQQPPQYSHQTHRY
CDK8/CycC, sequence (P24863 whole entry partner): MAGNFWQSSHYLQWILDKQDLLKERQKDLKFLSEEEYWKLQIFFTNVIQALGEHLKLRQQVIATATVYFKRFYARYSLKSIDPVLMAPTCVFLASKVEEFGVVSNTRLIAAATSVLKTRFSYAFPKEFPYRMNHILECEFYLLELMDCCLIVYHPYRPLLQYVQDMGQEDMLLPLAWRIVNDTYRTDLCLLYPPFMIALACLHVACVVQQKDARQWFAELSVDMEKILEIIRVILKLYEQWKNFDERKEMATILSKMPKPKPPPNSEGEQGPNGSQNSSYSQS
CDK19/CycC, sequence (Q9BWU1 whole entry): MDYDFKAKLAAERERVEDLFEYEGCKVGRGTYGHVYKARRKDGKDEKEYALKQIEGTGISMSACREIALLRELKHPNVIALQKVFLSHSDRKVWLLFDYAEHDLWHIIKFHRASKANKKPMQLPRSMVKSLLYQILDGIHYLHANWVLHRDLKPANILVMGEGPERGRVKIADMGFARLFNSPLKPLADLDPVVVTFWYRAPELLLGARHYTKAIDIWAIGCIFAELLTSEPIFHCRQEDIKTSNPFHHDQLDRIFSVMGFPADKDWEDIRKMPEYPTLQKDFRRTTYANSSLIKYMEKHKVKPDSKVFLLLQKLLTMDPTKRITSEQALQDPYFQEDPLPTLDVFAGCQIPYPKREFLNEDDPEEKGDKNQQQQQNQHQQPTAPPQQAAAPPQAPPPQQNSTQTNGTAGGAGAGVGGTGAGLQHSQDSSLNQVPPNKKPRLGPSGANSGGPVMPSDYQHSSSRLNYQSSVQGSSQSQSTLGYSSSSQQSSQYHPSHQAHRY
CDK19/CycC, sequence (P24863 whole entry partner): as the sequence (P24863 whole entry partner) above

Q: Which results are given for COc1ccc(OC)c(CCC(=O)Nc2cc(-c3nc(SC)[nH]c3-c3ccc(F)cc3)ccn2)c1 [11b, 3-(2,5-Dimethoxyphenyl)-N-(4-(5-(4-fluorophenyl)-2-(methylthio)-1H-imidazol-4-yl)-pyridin-2-yl)-propanamide]?
A: remaining activity at 0.1 µM (EIF2AK3): 91%; remaining activity at 0.1 µM (Aurora-A): 93%; remaining activity at 0.1 µM (CDK1/CycA2): 91%; remaining activity at 0.1 µM (BMX): 98%; remaining activity at 0.1 µM (DYRK4): 100%; remaining activity at 0.1 µM (CAMK1D): 78%; Residual activity (%) (CK1-gamma2): unaffected; remaining activity at 0.1 µM (CK1-gamma2; [2]): 91%; remaining activity at 0.1 µM (COT): 111%; remaining activity at 0.1 µM (CAMK4): 95%; remaining activity at 0.1 µM (CDK2/CycE1): 99%; remaining activity at 0.1 µM (CDC7/ASK): 97%; remaining activity at 0.1 µM (ACK1): 96%; remaining activity at 0.1 µM (DAPK1): 96%; remaining activity at 0.1 µM (JNK3): 37%; remaining activity at 0.1 µM (ABL1): 100%; remaining activity at 0.1 µM (CDK5/p25NCK): 117%; remaining activity at 0.1 µM (CAMKK1): 99%; remaining activity at 0.1 µM (EPHA4): 96%; remaining activity at 0.1 µM (CDK6/CycD1): 105%; remaining activity at 0.1 µM (CDK5/p35NCK): 85%; remaining activity at 0.1 µM (DYRK1A): 96%; remaining activity at 0.1 µM (CDK3/CycC): 95%; remaining activity at 0.1 µM (CLK3): 98%; remaining activity at 0.1 µM (CDK8/CycC): 90%; remaining activity at 0.1 µM (CDK3/CycE1): 98%; Residual activity (%) (CK1-gamma3): unaffected; remaining activity at 0.1 µM (CK1-gamma3; [2]): 73%; remaining activity at 0.1 µM (CK2-alpha2): 90%; remaining activity at 0.1 µM (DDR2): 101%; remaining activity at 0.1 µM (CDK9/CycK): 103%; remaining activity at 0.1 µM (CDK19/CycC): 86%; selectivity score S(50) ([1]; 321 protein kinases, calculated in accordance to Karaman et al.): 0.027; additional kinases with residual activities less than 50% apart from CK1δ and CK1ε ([1]; panel of 321 protein kinases): six; remaining activity at 0.1 µM (CDK9/CycT1): 93%; remaining activity at 0.1 µM (CDK6/CycD3): 97%; remaining activity at 0.1 µM (B-RAF V600E): 102%; remaining activity at 0.1 µM (AKT1 aa106-480): 90%; remaining activity at 0.1 µM (AXL): 104%; remaining activity at 0.1 µM (RIPK2): 45%; remaining activity at 0.1 µM (CDK1/CycE1): 97%; remaining activity at 0.1 µM (p38α MAPK): 22%; remaining activity at 0.1 µM (ACV-R1B): 101%; remaining activity at 0.1 µM (CK1-epsilon): 7%
